Measured values from patent US9290511B2, “Thieno-pyrimidines, useful as potassium channel inhibitors” (XENTION LIMITED, priority 2011, dated 2016).

Biological target: T1, Kir3.1/3.4 (Rattus norvegicus, UniProt P48548+P63251)
T1 construct: expressed in transfected cells
T1 sequence (P63251 1-501): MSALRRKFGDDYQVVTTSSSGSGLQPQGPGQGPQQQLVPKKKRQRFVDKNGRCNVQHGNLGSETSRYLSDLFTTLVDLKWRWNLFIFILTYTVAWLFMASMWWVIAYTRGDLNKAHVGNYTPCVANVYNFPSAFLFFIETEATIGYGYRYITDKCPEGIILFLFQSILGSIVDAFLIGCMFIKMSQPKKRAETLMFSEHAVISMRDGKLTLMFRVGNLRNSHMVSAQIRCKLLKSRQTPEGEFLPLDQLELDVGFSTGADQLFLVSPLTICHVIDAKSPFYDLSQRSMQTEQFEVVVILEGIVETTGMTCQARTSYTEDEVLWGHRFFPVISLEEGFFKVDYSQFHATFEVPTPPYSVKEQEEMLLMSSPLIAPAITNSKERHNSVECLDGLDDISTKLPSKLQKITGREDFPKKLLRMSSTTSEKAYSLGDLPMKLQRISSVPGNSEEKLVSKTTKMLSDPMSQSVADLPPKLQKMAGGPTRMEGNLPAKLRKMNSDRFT
T1 sequence (P48548 1-419): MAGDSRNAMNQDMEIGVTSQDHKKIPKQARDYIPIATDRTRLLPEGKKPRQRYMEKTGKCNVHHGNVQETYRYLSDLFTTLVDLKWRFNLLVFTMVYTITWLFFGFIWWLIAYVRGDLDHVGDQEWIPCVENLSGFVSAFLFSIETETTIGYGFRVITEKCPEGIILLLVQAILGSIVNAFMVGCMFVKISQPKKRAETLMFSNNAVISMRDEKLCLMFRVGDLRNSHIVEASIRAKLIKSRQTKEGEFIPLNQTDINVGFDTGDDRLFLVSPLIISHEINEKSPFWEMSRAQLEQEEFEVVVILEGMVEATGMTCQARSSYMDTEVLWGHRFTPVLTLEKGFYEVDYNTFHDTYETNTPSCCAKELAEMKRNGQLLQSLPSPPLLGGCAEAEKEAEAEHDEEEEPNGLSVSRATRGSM
Assay: Kir3.1/3.4 Q-patch Method (automated patch clamp, Sophion Q-patch)
Assay type: cell-based
Settings: HEK293 cells stably-expressing Kir3.1/3.4; current at -120 mV; QPatch-16 or QPatch-48
Procedure: For automated patch-clamp studies using the Sophion Q-patch, accumulative concentration-responses experiments were conducted to determine compound activity against the ion channel target. Voltage-clamp experiments were performed using HEK293 cells stably-expressing Kir3.1/3.4 using either a QPatch-16 or QPatch-48 (Sophion Bioscience A/S). A voltage waveform (VHold−20 mV, step to 60 mV for 100 ms, ramp to −120 mV over 500 ms, hold at −120 mV for 100 ms before returning to VHold) was repeatedly applied to the cells under voltage-clamp at a frequency of 0.1 Hz to elicit Kir3.1/3.4 currents. Mean current at −120 mV was measured in the absence (Icontrol) and presence of drug (IDrug). Assessment of passive leak was performed by removal of external potassium (IZero). Leak current was subtracted from control and drug recordings. Current inhibition (%) was calculated as {1−[(IDrug−IZero)/(IControl−IZero)]}*100. Data were fitted with a sigmoidal function to yield an IC50 and Hill coefficient. Composition of external experimental buffer was (in mM): 40 NaCl, 100 KCl, 5 CaCl2, 1 MgCl2, 10 HEPES pH 7.4. Composition of internal solution was (in mM). 40 K-gluconate, 60 KF, 20 NaCl, 5 Mg-ATP, 0.9 GTPgS, 20 EGTA, pH 7.2. Compounds were formulated in DMSO and diluted in buffer to give a final drug concentration of between […] and a final DMSO concentration of 0.1-0.3%.

COc1ccccc1-c1csc2nc(N3C4CCC3CC(CO)C4)nc(N3C4CCC3CC(OC)C4)c12 (stereo not drawn) [Example 371, [8-[4-(3-methoxy-8-azabicyclo[3.2.1]octan-8-yl)-5-(2-methoxyphenyl)thieno[2,3-d]pyrimidin-2-yl]-8-azabicyclo[3.2.1]octan-3-yl]methanol] and COc1ccccc1-c1csc2nc(N3C4CCC3CC(O)C4)nc(N3C4CCC3CC(OC)C4)c12 (stereo not drawn) [Example 377, 8-[4-(3-methoxy-8-azabicyclo[3.2.1]octan-8-yl)-5-(2-methoxyphenyl)thieno[2,3-d]pyrimidin-2-yl]-8-azabicyclo[3.2.1]octan-3-ol] fall in the same range of IC50: 500 to 3000 nM for the first, 500 to 3000 nM for the second.

Compared with COCC1CC2CCC(C1)N2c1nc(N2C3CCC2CC(O)C3)nc2scc(-c3ccccc3OC)c12 (stereo not drawn) [Example 372, 8-[4-[3-(methoxymethyl)-8-azabicyclo[3.2.1]octan-8-yl]-5-(2-methoxyphenyl)thieno[2,3-d]pyrimidin-2-yl]-8-azabicyclo[3.2.1]octan-3-ol], COCC1CC2CCC(C1)N2c1nc(N2C3CCC2COC3)c2c(-c3ccccc3OC)csc2n1 (stereo not drawn) [Example 395, 8-[2-[3-(methoxymethyl)-8-azabicyclo[3.2.1]octan-8-yl]-5-(2-methoxyphenyl)thieno[2,3-d]pyrimidin-4-yl]-3-oxa-8-azabicyclo[3.2.1]octane] is higher in IC50: under 500 nM for the first, 500 to 3000 nM for the second. The first is the more potent here.

COC1CC2CCC(C1)N2c1nc(N2CCCC(C(N)=O)C2)nc2scc(-c3ccccc3Cl)c12 (stereo not drawn) [Example 373, 1-[5-(2-chlorophenyl)-4-(3-methoxy-8-azabicyclo[3.2.1]octan-8-yl)thieno[2,3-d]pyrimidin-2-yl]piperidine-3-carboxamide] and COC1CC2CCC(C1)N2c1nc(N2CCCC(C(N)=O)C2)c2c(-c3ccccc3Cl)csc2n1 (stereo not drawn) [Example 374, 1-[5-(2-chlorophenyl)-2-(3-methoxy-8-azabicyclo[3.2.1]octan-8-yl)thieno[2,3-d]pyrimidin-4-yl]piperidine-3-carboxamide] cannot be ordered by IC50: under 500 nM for the first, under 500 nM for the second.

COC1CC2CCC(C1)N2c1nc(N2C3CCC2CC(O)C3)nc2scc(-c3ccccc3Cl)c12 (stereo not drawn) [Example 375, 8-[5-(2-chlorophenyl)-4-(3-methoxy-8-azabicyclo[3.2.1]octan-8-yl)thieno[2,3-d]pyrimidin-2-yl]-8-azabicyclo[3.2.1]octan-3-ol] and COc1ccccc1-c1csc2nc(N3C4CCC3COC4)nc(N3C4CCC3CC(OC)C4)c12 (stereo not drawn) [Example 379, 8-[4-(3-methoxy-8-azabicyclo[3.2.1]octan-8-yl)-5-(2-methoxyphenyl)thieno[2,3-d]pyrimidin-2-yl]-3-oxa-8-azabicyclo[3.2.1]octane] fall in the same range of IC50: 500 to 3000 nM for the first, 500 to 3000 nM for the second.

First: COCC1CC2CCC(C1)N2c1nc(N2CCC(C(N)=O)C2)nc2scc(-c3ccccc3OC)c12 (stereo not drawn) [Example 376, 1-[4-[3-(methoxymethyl)-8-azabicyclo[3.2.1]octan-8-yl]-5-(2-methoxyphenyl)thieno[2,3-d]pyrimidin-2-yl]pyrrolidine-3-carboxamide]
Second: COc1ccccc1-c1csc2nc(N3CCC(C(N)=O)C3)nc(N3C4CCC3CC(OC)C4)c12 (stereo not drawn) [Example 396, 1-[4-(3-methoxy-8-azabicyclo[3.2.1]octan-8-yl)-5-(2-methoxyphenyl)thieno[2,3-d]pyrimidin-2-yl]pyrrolidine-3-carboxamide]
The IC50 of the first is higher: 500 to 3000 nM for the first, under 500 nM for the second. The second is the more potent here.

Compared with COCC1CC2CCC(C1)N2c1nc(N2CCNC(=O)C2)nc2scc(-c3ccccc3OC)c12 (stereo not drawn) [Example 378, 4-[4-[3-(methoxymethyl)-8-azabicyclo[3.2.1]octan-8-yl]-5-(2-methoxyphenyl)thieno[2,3-d]pyrimidin-2-yl]piperazin-2-one], COc1ccccc1-c1csc2nc(N3CCNC(=O)C3)nc(N3C4CCC3CC(OC)C4)c12 (stereo not drawn) [Example 380, 4-[4-(3-methoxy-8-azabicyclo[3.2.1]octan-8-yl)-5-(2-methoxyphenyl)thieno[2,3-d]pyrimidin-2-yl]piperazin-2-one] is lower in IC50: 500 to 3000 nM for the first, under 500 nM for the second. The second is the more potent here.

Compared with COc1ccccc1-c1csc2nc(N3CCCC(C(N)=O)C3)nc(N3C4CCC3CC(OC)C4)c12 (stereo not drawn) [Example 390, 1-[4-(3-methoxy-8-azabicyclo[3.2.1]octan-8-yl)-5-(2-methoxyphenyl)thieno[2,3-d]pyrimidin-2-yl]piperidine-3-carboxamide], COc1ccccc1-c1csc2nc(N3CCNC(C(N)=O)C3)nc(N3C4CCC3CC(OC)C4)c12 (stereo not drawn) [Example 394, 4-[4-(3-methoxy-8-azabicyclo[3.2.1]octan-8-yl)-5-(2-methoxyphenyl)thieno[2,3-d]pyrimidin-2-yl]piperazine-2-carboxamide] is lower in IC50: 500 to 3000 nM for the first, under 500 nM for the second.

First: COC1CC2CCC(C1)N2c1nc(N2CCNC(=O)C2)nc2scc(-c3ccccc3Cl)c12 (stereo not drawn) [Example 391, 4-[5-(2-chlorophenyl)-4-(3-methoxy-8-azabicyclo[3.2.1]octan-8-yl)thieno[2,3-d]pyrimidin-2-yl]piperazin-2-one]
Second: COC1CC2CCC(C1)N2c1nc(N2CCNC(C(N)=O)C2)nc2scc(-c3ccccc3Cl)c12 (stereo not drawn) [Example 392, 4-[5-(2-chlorophenyl)-4-(3-methoxy-8-azabicyclo[3.2.1]octan-8-yl)thieno[2,3-d]pyrimidin-2-yl]piperazine-2-carboxamide]
The IC50 of the first is higher: 500 to 3000 nM for the first, under 500 nM for the second.

NC(=O)C1CCCN(c2nc(N3C4CCC3CC(CO)C4)nc3scc(-c4ccccc4Cl)c23)C1 (stereo not drawn) [Example 393, 1-[5-(2-chlorophenyl)-2-[3-(hydroxymethyl)-8-azabicyclo[3.2.1]octan-8-yl]thieno[2,3-d]pyrimidin-4-yl]piperidine-3-carboxamide] and COc1ccccc1-c1csc2nc(N3CCNC(C(N)=O)C3)nc(N3C4CCC3COC4)c12 (stereo not drawn) [Example 398, 4-[5-(2-methoxyphenyl)-4-(3-oxa-8-azabicyclo[3.2.1]octan-8-yl)thieno[2,3-d]pyrimidin-2-yl]piperazine-2-carboxamide] cannot be ordered by IC50: under 500 nM for the first, under 500 nM for the second.

For COc1ccccc1-c1csc2nc(N3C4CCC3CC(OC)C4)nc(N3C4CCC3COC4)c12 (stereo not drawn) [Example 397, 8-[2-(3-methoxy-8-azabicyclo[3.2.1]octan-8-yl)-5-(2-methoxyphenyl)thieno[2,3-d]pyrimidin-4-yl]-3-oxa-8-azabicyclo[3.2.1]octane], the IC50 was under 500 nM.

Biological target: T1, Kir3.1/3.4
Assay: Kir3.1/3.4 Electrophysiology Method (manual whole-cell patch clamp)
Assay type: cell-based
Settings: Electrophysiology Method (TABLE 1)
Procedure, shortened: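 Manual whole-cell patch clamp on HEK293 cells stably expressing rat Kir3.1/3.4, with GTPγS in the pipette. Cells were held at −60 mV and stepped to +60 mV, then ramped to −140 mV every 10 s. Steady-state inhibition at −140 mV was measured after subtracting leak recorded in zero-K+ bath.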

First: COCC1C[C@H]2CC[C@@H](C1)N2c1nc(OC2CC3CC2CN3)nc2sc(C(=O)N(C)C)c(-c3ccccc3)c12 (stereo partly drawn) [Example 366, 2-(2-azabicyclo[2.2.1]heptan-5-yloxy)-4-[(1S,5R)-3-(methoxymethyl)-8-azabicyclo[3.2.1]octan-8-yl]-N,N-dimethyl-5-phenyl-thieno[2,3-d]pyrimidine-6-carboxamide]
Second: COc1ccccc1-c1csc2ncnc(N3C4CCC3CC(CNC3CCC3)C4)c12 (stereo not drawn) [Example 367]
The IC50 of the first is higher: 500 to 3000 nM for the first, under 500 nM for the second. The second is the more potent here.

O=C1NCCN1c1sc2ncnc(N3CCC(COCCN4CCCC4)CC3)c2c1-c1ccccc1 [Example 368] and CCc1nc(N2CCC(N(C)C)CC2)c2c(-c3ccccc3)csc2n1 [Example 370] cannot be ordered by IC50: under 500 nM for the first, under 500 nM for the second.

First: N,N-dimethyl-5-phenyl-thieno[2,3-d]pyrimidine-6-carboxamide [Example 339]
Second: N-(2-pyrrolidin-1-ylethyl)thieno[2,3-d]pyrimidin-2-amine [Example 108]
The IC50 of the first is lower: under 500 nM for the first, 500 to 3000 nM for the second.

Compared with “N-(2-pyrrolidin-1-ylethyl)thieno[2,3-d]pyrimidin-2-amine [Example 127]”, “N-methyl-5-phenyl-thieno[2,3-d]pyrimidine-6-carboxamide [Example 343]” is higher in IC50: under 500 nM for the first, 500 to 3000 nM for the second. The first is the more potent here.
